According to paper PMC5433351 (Metabolic engineering, 2016):

Target: HPCS, 3-hydroxypropionyl-CoA synthetase (HPCS/HPCD complex) (Metallosphaera sedula, UniProt A4YGR1)
Conditions: ATP 3 mM, CoA 0.1 mM, MgCl2 20 mM, NADPH 0.5 mM, pH 6.5, 65°C

HPCS, 3-hydroxypropionyl-CoA synthetase (HPCS/HPCD complex), sequence (A4YGR1 whole entry): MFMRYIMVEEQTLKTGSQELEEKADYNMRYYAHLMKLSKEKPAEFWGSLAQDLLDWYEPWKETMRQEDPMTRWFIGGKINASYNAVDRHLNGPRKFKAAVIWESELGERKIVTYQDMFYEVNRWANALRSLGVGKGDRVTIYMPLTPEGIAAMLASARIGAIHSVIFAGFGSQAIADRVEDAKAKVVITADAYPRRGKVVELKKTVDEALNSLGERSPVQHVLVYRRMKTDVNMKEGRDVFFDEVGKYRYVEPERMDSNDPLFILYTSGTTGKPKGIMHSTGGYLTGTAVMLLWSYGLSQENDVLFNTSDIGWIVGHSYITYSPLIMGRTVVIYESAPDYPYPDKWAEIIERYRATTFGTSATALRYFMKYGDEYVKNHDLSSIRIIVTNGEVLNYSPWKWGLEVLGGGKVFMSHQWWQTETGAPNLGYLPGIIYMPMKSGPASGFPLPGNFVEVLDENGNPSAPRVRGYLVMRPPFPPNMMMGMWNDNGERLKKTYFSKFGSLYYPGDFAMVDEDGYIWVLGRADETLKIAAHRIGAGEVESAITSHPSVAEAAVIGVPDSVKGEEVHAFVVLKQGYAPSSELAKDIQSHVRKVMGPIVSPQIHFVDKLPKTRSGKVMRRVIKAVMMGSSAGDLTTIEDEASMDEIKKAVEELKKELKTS
HPCS, 3-hydroxypropionyl-CoA synthetase (HPCS/HPCD complex), sequence (A4YI89 whole entry partner): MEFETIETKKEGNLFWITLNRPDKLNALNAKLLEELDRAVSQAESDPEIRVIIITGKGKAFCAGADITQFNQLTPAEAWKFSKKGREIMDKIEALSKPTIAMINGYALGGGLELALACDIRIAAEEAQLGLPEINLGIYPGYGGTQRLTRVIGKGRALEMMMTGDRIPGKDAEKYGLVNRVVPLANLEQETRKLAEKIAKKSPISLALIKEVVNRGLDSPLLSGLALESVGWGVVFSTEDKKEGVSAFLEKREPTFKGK

O=C(O)CCO [3-Hydroxypropionate]
HPLC of propionyl-CoA formed with HPCS/HPCD and ACR: Formation of propionyl-CoA from 3HP by HPCS, HDCD, and ACR
